Assay results: ChEMBL document CHEMBL4219119, “Benzoxazin-4-ones as novel, easily accessible inhibitors for rhomboid proteases” (Bioorg Med Chem Lett, 2018)
Calls of active or inactive are those of the source. No cut-off for these calls is given here.

Tests used:
[1] = target: T1, Rhomboid protease GluP (Bacillus subtilis (strain 168), UniProt P54493); test: Competitive inhibition of Bacillus subtilis rhomboid YqgP preincubated for 30 mins followed by FP-Rh addition measured after 1 hr by gel-based ABPP method
T1 sequence (P54493 whole entry): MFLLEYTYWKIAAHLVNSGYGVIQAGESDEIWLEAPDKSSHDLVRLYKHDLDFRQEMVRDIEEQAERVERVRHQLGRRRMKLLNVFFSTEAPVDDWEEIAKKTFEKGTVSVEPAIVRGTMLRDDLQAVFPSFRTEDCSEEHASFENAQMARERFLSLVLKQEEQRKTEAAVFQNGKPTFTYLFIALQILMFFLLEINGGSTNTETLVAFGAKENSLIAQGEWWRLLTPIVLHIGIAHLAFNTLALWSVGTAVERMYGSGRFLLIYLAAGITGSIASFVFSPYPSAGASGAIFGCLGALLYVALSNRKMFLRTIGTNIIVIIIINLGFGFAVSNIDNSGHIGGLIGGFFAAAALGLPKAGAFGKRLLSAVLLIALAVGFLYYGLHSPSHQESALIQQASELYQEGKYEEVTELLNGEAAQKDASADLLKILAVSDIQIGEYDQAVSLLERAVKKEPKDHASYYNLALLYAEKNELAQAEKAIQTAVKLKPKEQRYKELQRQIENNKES

[2] = Inhibition of bovine trypsin using Z-GGR-AMC as substrate preincubated for 30 mins followed by substrate addition measured for 20 mins by fluorescence assay; design: species or system Bos taurus
[3] = Inhibition of bovine chymotrypsin using Suc-AAF-AMC as substrate preincubated for 30 mins followed by substrate addition measured for 20 mins by fluorescence assay; design: species or system Bos taurus
[4] = system: Escherichia coli; test: Competitive inhibition of Escherichia coli rhomboid GlpG assessed as residual enzyme activity at 100 uM preincubated for 30 mins followed by FP-Rh addition measured after 1 hr by gel-based ABPP method
[5] = target: T2, Rhomboid protease GluP (Bacillus subtilis (strain 168)) (UniProt P54493); test: Competitive inhibition of Bacillus subtilis rhomboid YqgP assessed as residual enzyme activity at 100 uM preincubated for 30 mins followed by FP-Rh addition measured after 1 hr by gel-based ABPP method
T2 sequence (whole entry): T1 sequence (P54493 whole entry)

[6] = system: Escherichia coli; test: Competitive inhibition of Escherichia coli rhomboid GlpG at 100 uM preincubated for 30 mins followed by FP-Rh addition measured after 1 hr by gel-based ABPP method
[7] = target: T2, Rhomboid protease GluP (Bacillus subtilis (strain 168)); test: Competitive inhibition of Bacillus subtilis rhomboid YqgP at 100 uM preincubated for 30 mins followed by FP-Rh addition measured after 1 hr by gel-based ABPP method
[8] = Competitive inhibition of Escherichia coli rhomboid GlpG preincubated for 30 mins followed by FP-Rh addition measured after 1 hr by gel-based ABPP method
[9] = system: Escherichia coli; test: (§1) Inhibition of rhomboid GlpG in Escherichia coli MC4100 outer membrane permeabilized mutant containing delta-lptD4213 preincubated for 15 mins followed by pPR61 (pD881-SR_MBP-LacYTM2-Trx) substrate addition measured after 4 hrs by fluorescence based Western blot
[10] = system: Escherichia coli; test: Irreversible inhibition of Escherichia coli rhomboid GlpG assessed as residual activity at 10 uM preincubated for 30 mins followed by excess drug removal for 0 to 240 mins before FP-Rh addition measured after 1 hr by ABPP method
[11] = system: Escherichia coli; test: Reversible inhibition of Escherichia coli rhomboid GlpG assessed as residual activity at 10 uM preincubated for 30 mins followed by excess drug removal for 30 mins before FP-Rh addition measured after 1 hr by ABPP method
[12] = Selectivity index, ratio of IC50 for competitive inhibition of Escherichia coli rhomboid GlpG to IC50 for competitive inhibition of Bacillus subtilis rhomboid YqgP
[13] = as §1
[14] = Selectivity index, ratio of IC50 for competitive inhibition of Bacillus subtilis rhomboid YqgP to IC50 for competitive inhibition of Escherichia coli rhomboid GlpG
[15] = system: Escherichia coli; test: Reversible inhibition of Escherichia coli rhomboid GlpG assessed as residual activity preincubated for 30 mins followed by excess drug removal for 240 mins before FP-Rh addition measured after 1 hr by ABPP method

SMILES | IC50 [1] [nM] | IC50 [2] [nM] | IC50 [3] [nM] | Activity [4] [%] | Activity [5] [%] | inhibition [6] | inhibition [7] | IC50 [8] [nM] | other results
C#CCOc1nc2cccc(C)c2c(=O)o1 | 2800 | 1100 | < 100 | < 5 | < 5 |  |  |  | 
C#CCCCc1nc2cccc(C)c2c(=O)o1 |  |  |  |  |  | Active | Active |  | 
C#CCOc1nc2cccc(Cl)c2c(=O)o1 | 6200 | 1200 | 410 | < 5 | < 5 | Active | Active | 1700 | inhibition [9]: inactive; inhibition [10]: Active
Cc1cccc2nc(OCCc3ccccc3)oc(=O)c12 |  |  |  |  |  | inactive | inactive |  | 
O=c1oc(OCc2ccccc2)nc2cccc(Cl)c12 | 1600 | < 100 | < 100 | < 5 | < 5 |  |  | 1200 | inhibition [9]: inactive; inhibition [10]: Active
C#CCCOc1oc(=O)c2cc(N)ccc2c1Cl |  |  |  |  |  | Active | Active |  | 
Cc1ccc2nc(OCc3ccccc3)oc(=O)c2c1 | 4600 | < 100 | < 100 | < 5 | < 5 |  |  |  | 
O=c1oc(OCc2ccccc2)nc2cc3ccccc3cc12 | 7300 | < 100 | < 100 | < 5 | < 5 |  |  | 2400 | 
O=c1oc(OCc2ccccc2)nc2ccccc12 | 3700 | < 100 | < 100 | < 5 | < 5 |  |  | 2500 | inhibition [9]: Active; inhibition [11]: inactive
O=c1oc(OCCc2ccccc2)nc2cccc(Cl)c12 |  |  |  |  |  | inactive | inactive |  | 
CCOc1nc2cccc(Cl)c2c(=O)o1 | 7100 | < 100 | < 100 | < 5 | < 5 |  |  | 2200 | inhibition [9]: inactive; inhibition [10]: Active
O=c1oc(OCc2ccccc2)nc2c(Cl)cccc12 | 470 | < 100 | < 100 | < 5 | < 5 |  |  | 63000 | Ratio IC50 [12]: 130
Cc1cccc2nc(OCc3ccccc3)oc(=O)c12 | 15000 | < 100 | < 100 | < 5 | < 5 |  |  | 1000 | IC50 [13]: 8500 nM; inhibition [10]: Active; Ratio IC50 [14]: 15
O=c1oc(Cl)c(Cl)c2ccccc12 |  |  |  |  |  |  |  |  | Activity [15]: 50%
C#CCCCc1nc2cccc(Cl)c2c(=O)o1 |  |  |  |  |  | Active | Active |  | 
